Data: BindingDB's records for patent US10954228 (The Trustees of The University of Pennsylvania, 2021)
pIC50: −log10 of the molar value.

target: L-lactate dehydrogenase A chain (Homo sapiens, UniProt P00338); test: Biochemical Assay
Protocol: Test compounds were placed in a Greiner Bio-One (Monroe, N.C.) 1536-well black solid bottom assay plate. 200 millimolar (mM) Tris HCl, pH 7.4, 100 micromolar (μM) EDTA and 0.01% TWEEN-20, final concentration, was used as the assay buffer. The LDHA reagent was 2 nanomolar (nM) Human LDHA (Meridian Life Science, Inc., Memphis, Tenn.), final concentration, in assay buffer. The substrate reagent was 0.06 mM NADH and 0.2 mM sodium pyruvate, final concentration, in assay buffer. The resazurin/diaphorase coupling reagent was 0.037 mM resazurin and 0.133 milligrams per milliliter (mg/mL) diaphorase, final concentration, in assay buffer. The inhibition of LDHA activity was measured by fluorescence emission.

pIC50	Compound
> 7.00	CN(C)c1ccc(-c2cc(-c3nn(-c4nc(C(=O)O)cs4)c(CC4CC4)c3Cc3ccc(S(N)(=O)=O)c(F)c3)ccc2F)cc1 [US10954228, Compound 190]
> 7.00	CC(C)c1ccc(-c2cccc(-c3nn(-c4nc(C(=O)O)cs4)c(CC4CC4)c3Cc3ccc(S(N)(=O)=O)c(F)c3)c2)nc1 [US10954228, Compound 218]
> 7.00	CC(C)c1cnc(-c2cccc(-c3nn(-c4nc(C(=O)O)cs4)c(CC4CC4)c3Cc3ccc(S(N)(=O)=O)c(F)c3)c2)nc1 [US10954228, Compound 216]
> 7.00	NS(=O)(=O)c1ccc(Cc2c(-c3ccc(F)c(-c4cccc(F)c4)c3)nn(-c3nc(C(=O)O)cs3)c2CC2CC2)cc1F [US10954228, Compound 196]

Second part, the compound before the results:

Compound	pIC50
CCC#Cc1cc(-c2nn(-c3nc(C(=O)O)cs3)c(CC3CC3)c2Cc2ccc([S+](N)(=O)[O-])c(F)c2)ccc1F [US10954228, Compound 109]	> 7.00
CC(C)c1ccc(-c2cc(-c3nn(-c4nc(C(=O)O)cs4)c(CC4CC4)c3Cc3ccc(S(N)(=O)=O)c(F)c3)ccc2F)cc1 [US10954228, Compound 199]	> 7.00
NS(=O)(=O)c1ccc(Cc2c(-c3cccc(C(=O)N4CCCC4)c3)nn(-c3nc(C(=O)O)cs3)c2CC2CC2)cc1 [US10954228, Compound 145]	> 7.00
CC(C)(C)NC(=O)c1cccc(-c2nn(-c3nc(C(=O)O)cs3)c(CC3CC3)c2Cc2ccc([S+](N)(=O)[O-])cc2)c1 [US10954228, Compound 188]	> 7.00
CC(C)(C)NC(=O)c1cc(-c2nn(-c3nc(C(=O)O)cs3)c(CC3CC3)c2Cc2ccc([S+](N)(=O)[O-])c(F)c2)ccc1F [US10954228, Compound 147]	> 7.00
Cc1ccc(C#Cc2cccc(-c3nn(-c4nc(C(=O)O)cs4)c(C4CC4C4CC4)c3Cc3ccc([S+](N)(=O)[O-])c(F)c3)c2)s1 (stereo not given) [US10954228, Compound 134]	6.00 to 7.00
